Measured values published in article PMC12055641, “The Study of Antistaphylococcal Potential of Omiganan and Retro-Omiganan Under Flow Conditions” (Probiotics and Antimicrobial Proteins, 2024).
In brackets after ≈: the same amount, converted by molar mass.

What was measured:
[1] = system: S. aureus clinical strain 005S; set-up: method as in earlier work; conditions: clinical isolate 005S, skin; cited from earlier work
[2] = system: S. aureus clinical strain 043SC (MRSA); set-up: method as in earlier work; conditions: clinical isolate 043SC (MRSA), skin of patient with furuncle folliculitis; cited from earlier work
[3] = system: S. aureus clinical strain 051N (MRSA); set-up: method as in earlier work; conditions: clinical isolate 051N (MRSA), nasal swab; cited from earlier work
[4] = system: S. aureus clinical strain 004N (MRSA); set-up: method as in earlier work; conditions: clinical isolate 004N (MRSA), nasal swab; cited from earlier work
[5] = system: S. aureus clinical strain 015N (MRSA); set-up: method as in earlier work; conditions: clinical isolate 015N (MRSA), nasal swab; cited from earlier work
[6] = system: S. aureus clinical strain 060S; set-up: method as in earlier work; conditions: clinical isolate 060S, skin; cited from earlier work
[7] = system: S. aureus clinical strain 030N; set-up: method as in earlier work; conditions: clinical isolate 030N, nasal swab; cited from earlier work
[8] = system: S. aureus clinical strain 031S; set-up: method as in earlier work; conditions: clinical isolate 031S, skin; cited from earlier work
[9] = system: S. aureus ATCC 25923; assay: microbe, parasite or virus in culture
Description: (§1) Clinical S. aureus strains were collected from patients with atopic dermatitis during their visits to the Outpatient Clinic and hospitalization in the Department of Dermatology, Venereology and Allergology at Medical University of Gdańsk (following the approval from the ethics committee, Approval Number NKBBN/242–477/2014). Reference strains of S. aureus ATCC 25923, S. aureus ATCC 33591, S. aureus ATCC 9144, and S. aureus ATCC 12598 were obtained from the American Type Culture Collection. All the strains were stored at − 80 °C in Roti®-Store cryo vials (Carl Roth GmbH, Karlsruhe, Germany) and before the tests were transferred into fresh Mueller–Hinton Medium (BioMaxima, Lublin, Poland) and incubated for 24 h at 37 °C. Subsequently, each bacterial inoculum was seeded on Mueller–Hinton agar plates (BioMaxima) and incubated again for 24 h. The cultures prepared in this way were used in further antimicrobial assays. Minimum inhibitory concentrations (MICs) were determined according to the Clinical and Laboratory Standards Institute recommendations. […] The experiments were conducted on 96-well microtiter plates, with a final volume of 100 μL. Additionally, in the case of daptomycin, the medium was supplemented with Ca^2+ (50 mg/L). Cell densities were adjusted spectrophotometrically (Multiskan™ GO Microplate Spectrophotometer, Thermo Scientific) at 600 nm. The MICs were taken as the lowest drug concentration at which a visible growth of the microorganisms was inhibited. Minimum biofilm eliminating concentrations (MBECs) were determined on 96-well flat-bottomed microtiter polystyrene plates with resazurin (7-hydroxy-3H-phenoxazin-3-one 10-oxide sodium salt) as a cell viability reagent. To do this, the plates were filled with 100 μL of the initial inoculums of bacteria (0.5 × 10^7 CFU/mL) in the Mueller–Hinton broth and incubated for 24 h at 37 °C. […] After 24 h of incubation, 20 μL of resazurin (4 mg/mL) was added to each well and the MBEC values were read. Minimum biofilm inhibitory concentrations (MBICs) were also determined on 96-well flat-bottomed microtiter polystyrene plates as described previously. To do this, 50 μL of the compounds in the concentration range, diluted MHB, were prepared. Subsequently, the 50 μL of the staphylococcal inoculums were added to reach the same density of bacteria as that in the MBEC assay. After 24 h of incubation at 37 °C, the wells were rinsed three times with PBS and the fresh medium (100 μL) with resazurin (0.6 mg/mL) was added. Then, after 1 h of incubation, MBICs were read. […] All experiments were conducted in triplicate.
(§2) Formation of the biofilm inside the PDMS flow chambers was performed using three peristaltic pumps working simultaneously (LP-pump, Kamush, Lipopharm, Poland) and sterile Tygon® 3350 silicone hoses (2.4 × 0.8 × 0.8 mm) with a length of 30 and 50 cm for inlet and outlet, respectively. Bacterial suspensions were prepared (0.5 × 10^7 CFU/mL) in sterile 50-mL test tubes, which were placed in a heating block at 37 °C. Before experiments, all channels were assessed for tightness and sterilized using a 70% 2-propanol solution (10 min, flow rate 1 mL/min) and rinsed with sterile PBS solution (10 min, flow 0.1 mL/min). The formation of biofilm inside the channels was divided into three stages: (1) adhesion—at this stage S. aureus suspensions were passed through the channels for 4 h at a flow rate of 0.1 mL/min; (2) rinsing—the previously used hoses were replaced with new sterile ones, and the channels were rinsed with sterile PBS solution for 10 min at a flow rate of 0.1 mL/min; (3) biofilm growth—after flushing the channels, the silicone hoses were placed in tubes with MHB medium, which was passed through the channels for 24 h at a flow rate of 0.1 mL/min. All experiments included growth and sterility controls.
(§3) This assay was conducted also on the S. aureus ATCC 25923 and S. aureus 33,591 (MRSA) strains.

[10] = system: S. aureus ATCC 33591 (MRSA); assay: microbe, parasite or virus in culture
Description: as §1, §2, §3

[11] = system: S. aureus clinical strain 009S; set-up: method as in earlier work; conditions: clinical isolate 009S, skin; cited from earlier work
[12] = S. aureus 25923 biofilm treated under flow with Retro-Omiganan (half MBEC) for 24 h
[13] = S. aureus 25923 biofilm treated under flow with Retro-Omiganan (half MBEC) for 48 h
[14] = S. aureus 25923 biofilm treated under flow with Retro-Omiganan (half MBEC) for 72 h
[15] = Staphylococcus aureus, ATCC25923, 0 h
[16] = Staphylococcus aureus, ATCC25923, 24 h
[17] = Staphylococcus aureus, ATCC25923, 48 h
[18] = Staphylococcus aureus, ATCC25923, 72 h
[19] = S. aureus ATCC 33591 (MRSA) biofilm treated under flow with Retro-Omiganan (half MBEC) for 24 h
[20] = S. aureus ATCC 33591 (MRSA) biofilm treated under flow with Retro-Omiganan (half MBEC) for 48 h
[21] = S. aureus ATCC 33591 (MRSA) biofilm treated under flow with Retro-Omiganan (half MBEC) for 72 h

CC1(C)S[C@@H]2[C@H](NC(=O)[C@H](N)c3ccccc3)C(=O)N2[C@H]1C(=O)O [Ampicillin]
Antimicrobial susceptibility (MIC) [1]: 8 µg/mL | Antimicrobial susceptibility (MIC) [2]: 32 µg/mL | Antimicrobial susceptibility (MIC) [3]: 0.25 µg/mL | Antimicrobial susceptibility (MIC) [4]: 0.5 µg/mL | Antimicrobial susceptibility (MIC) [5]: 16 µg/mL | Antimicrobial susceptibility (MIC) [6]: 0.25 µg/mL | Antimicrobial susceptibility (MIC) [7]: 0.5 µg/mL | Antimicrobial susceptibility (MIC) [8]: 0.5 µg/mL | MIC [9, 12]: 0.5 µg/mL (≈ 1.43 µM) | MIC [9, 13]: 0.5 µg/mL (≈ 1.43 µM) | MIC [9, 14]: 0.5 µg/mL (≈ 1.43 µM) | MIC [9, 15]: 0.5 µg/mL (≈ 1.43 µM) | MIC [9, 16]: 0.5 µg/mL (≈ 1.43 µM) | MIC [9, 17]: 0.5 µg/mL (≈ 1.43 µM) | MIC [9, 18]: 0.5 µg/mL (≈ 1.43 µM) | MIC [10, 19]: > 128 µg/mL | MIC [10, 20]: > 128 µg/mL | MIC [10, 21]: > 128 µg/mL | MIC ([10]; Staphylococcus aureus, 0 h): > 128 µg/mL | MIC ([10]; Staphylococcus aureus, 24 h): > 128 µg/mL | MIC ([10]; Staphylococcus aureus, 48 h): > 128 µg/mL | MIC ([10]; Staphylococcus aureus, 72 h): > 128 µg/mL

CC(=O)O[C@H]1C[C@@]2(C)[C@@H](C[C@@H](O)[C@H]3[C@@]4(C)CC[C@@H](O)[C@@H](C)[C@@H]4CC[C@@]32C)/C1=C(\CCC=C(C)C)C(=O)O [Fusidic Acid]
Antimicrobial susceptibility (MIC) [1]: 0.0625 µg/mL | Antimicrobial susceptibility (MIC) [2]: 0.125 µg/mL | Antimicrobial susceptibility (MIC) [3]: 0.125 µg/mL | Antimicrobial susceptibility (MIC) [4]: 0.0625 µg/mL | Antimicrobial susceptibility (MIC) [5]: 0.125 µg/mL | Antimicrobial susceptibility (MIC) [11]: 2 µg/mL | Antimicrobial susceptibility (MIC) [6]: 0.125 µg/mL | Antimicrobial susceptibility (MIC) [7]: 0.25 µg/mL | Antimicrobial susceptibility (MIC) [8]: 0.25 µg/mL | MIC [9, 12]: ≤ 0.25 µg/mL | MIC [9, 13]: ≤ 0.25 µg/mL | MIC [9, 14]: ≤ 0.25 µg/mL | MIC [9, 15]: ≤ 0.25 µg/mL | MIC [9, 16]: ≤ 0.25 µg/mL | MIC [9, 17]: ≤ 0.25 µg/mL | MIC [9, 18]: ≤ 0.25 µg/mL | MIC [10, 19]: ≤ 0.25 µg/mL | MIC [10, 20]: ≤ 0.25 µg/mL | MIC [10, 21]: ≤ 0.25 µg/mL | MIC ([10]; Staphylococcus aureus, 0 h): ≤ 0.25 µg/mL | MIC ([10]; Staphylococcus aureus, 24 h): ≤ 0.25 µg/mL | MIC ([10]; Staphylococcus aureus, 48 h): ≤ 0.25 µg/mL | MIC ([10]; Staphylococcus aureus, 72 h): ≤ 0.25 µg/mL
